Assays:
wild-type P. aeruginosa = assay: Foreign-body (silicone tube implant) infection model; assay type: in vivo, mice
Procedure: To examine the effect of a combination treatment with ajoene and tobramycin in vivo we used an foreign-body infection model [L. D. Christensen et al., Microbiology, 2007, 153, p. 2312-2320]. Silicone tube implants with a size of 4 mm (inner diameter 4 mm/outer diameter 6 mm) pre-colonized with wild-type P. aeruginosa, were inserted into the peritoneal cavity of mice. Treatments were injected subcutaneously every 24 hours, where ajoene and tobramycin treatment were initiated two days pre-insertion and 24 hours post-insertion, respectively. 72 hours after insertion the implants were removed from the mice and the number of colony-forming units per implant was determined. […] (E,Z) ajoene having an E:Z ratio of 1:4 was used.

P. aeruginosa = settings: E:Z=1:4 isomer used; cited from earlier work
P. aeruginosa genes = assay: DNA microarray, number of genes regulated by ajoene treatment; assay type: cell-based
Procedure: (§1) DNA microarray analysis was used to identify genes regulated by ajoene treatment. As a reference we have used the QS regulon previously identified by Hentzer et al., [M. Hentzer et al., EMBO J., 2003, 22, p. […] Exponential growing P. aeruginosa cultures were treated with the following four concentrations of ajoene; 10 μg/ml (42.7 μM), 20 μg/ml (85.4 μM), 40 μg/ml (170.8 μM) and 80 μg/ml (341.6 μM). (E,Z) ajoene having an E:Z ratio of 1:4 was used. […] The samples were retrieved at an OD600 nm of 2.0 (optical density) because previous investigations have shown the highest activity among the QS genes at that cell density. Gene expression of the treated cultures was compared to an untreated control.
In general, there was only a small number of genes that were down regulated more than 5 fold by the four different concentrations of ajoene; 0 genes at 10 μg/ml ajoene, 0 genes at 20 μg/ml ajoene, 2 genes at 40 μg/ml ajoene and 11 genes at 80 μg/ml ajoene. […] According to our experimental settings, expression of 10 out of the total number of 163 QS controlled P. aeruginosa genes (according to Hentzer et al., [M. Hentzer et al., EMBO J., 2003, 22, p. 3803-3815]) was down regulated by the ajoene treatments. A concentration of 80 μg/ml ajoene affects expression of 11 out of a total of 5570 P. aeruginosa genes. Ajoene is therefore highly specific for a subclass of QS controlled genes (Table 3).

PA2069 = assay: DNA microarray, gene expression in ajoene treated P. aeruginosa cultures; assay type: cell-based; settings: E:Z 1:4, OD600 2.0
Procedure: as §1

PA2146 = assay: as above; assay type: cell-based; settings: E:Z 1:4, OD600 2.0
Procedure: as §1

PA1871 lasA = assay: as above; assay type: cell-based; settings: E:Z 1:4, OD600 2.0
Procedure: as §1

lasB = assay: as above; assay type: cell-based; settings: ajoene 10-80 μg/ml
Procedure: as §1

PA3478 rhlB = assay: as above; assay type: cell-based; settings: E:Z 1:4, OD600 2.0
Procedure: as §1

PA4175 prpL = assay: as above; assay type: cell-based; settings: E:Z 1:4, OD600 2.0
Procedure: as §1

PA2300 chic = assay: as above; assay type: cell-based; settings: E:Z 1:4, OD600 2.0
Procedure: as §1

PA3479 rhlA = assay: as above; assay type: cell-based; settings: E:Z 1:4, OD600 2.0
Procedure: as §1

PA2570 pa1L = assay: as above; assay type: cell-based; settings: pa1L PA2570 (LecA), E:Z 1:4, OD600 2.0
Procedure: as §1

PA4142 = assay: as above; assay type: cell-based; settings: E:Z 1:4, OD600 2.0
Procedure: as §1

PA4141 = assay: as above; assay type: cell-based; settings: E:Z 1:4, OD600 2.0
Procedure: as §1

PA0852 cbpD = assay: as above; assay type: cell-based; settings: E:Z 1:4, OD600 2.0
Procedure: as §1

[1] = Biological activity after further purification, assays as described in the examples; settings: after column chromatography further purified, e.g. reverse phase HPLC; or isolated pure isomers
Excerpt: The purity of (E,Z)-ajoene after the above procedure may be 95-99.5%, such as 97-99.5%, 98-99.5%, 99-99.5% such as about 99.5%. […] This was also found when isolating pure (E)-ajoene and/or pure (Z)-ajoene, e.g. using HPLC. It is speculated that small amounts of ajoene derived chemistry, i.e. compounds related to ajoene, such as less than 5%, 3%, 2%, 1%, such as less than 0.5% may be highly important in the stabilisation of (E,Z)-ajoene and derivatives, towards degradation, e.g. oxidation, reduction and or cleavage, both in vitro but importantly also in vivo.

C=CCSSC=CC[S+]([O-])CC=C (stereo not drawn) [ajoene, (E,Z)-4,5,9-trithiadodeca-1,6,11-triene-9-oxide]
clearing of implants, single treatment versus placebo group (wild-type P. aeruginosa; CFU per implant 72 hours after insertion): significant difference in clearing
clearing of implants, between the two single treatment groups (wild-type P. aeruginosa; ajoene versus tobramycin): no significant difference in clearing
growth inhibitory effect on P. aeruginosa (P. aeruginosa): no measurable growth inhibitory effect
number of genes down regulated more than 5 fold (P. aeruginosa genes; 10 μg/ml ajoene): 0 genes
number of genes down regulated more than 5 fold (P. aeruginosa genes; 20 μg/ml ajoene): 0 genes
number of genes down regulated more than 5 fold (P. aeruginosa genes; 40 μg/ml ajoene): 2 genes
number of genes down regulated more than 5 fold (P. aeruginosa genes; 80 μg/ml ajoene, out of a total of 5570 P. aeruginosa genes): 11 genes
number of QS controlled P. aeruginosa genes down regulated by the ajoene treatments (P. aeruginosa genes; out of the total number of 163 QS controlled genes (Hentzer et al.)): 10 genes
fold change in gene expression compared to an untreated control (PA2069; [Ajoene] 10 μg/ml): −2.3 fold
fold change in gene expression compared to an untreated control (PA2069; [Ajoene] 20 μg/ml): −2.4 fold
fold change in gene expression compared to an untreated control (PA2069; [Ajoene] 40 μg/ml): −4.0 fold
fold change in gene expression compared to an untreated control (PA2069; [Ajoene] 80 μg/ml): −5.3 fold
fold change in gene expression compared to an untreated control (PA2146; [Ajoene] 10 μg/ml): −1.3 fold
fold change in gene expression compared to an untreated control (PA2146; [Ajoene] 20 μg/ml): −1.8 fold
fold change in gene expression compared to an untreated control (PA2146; [Ajoene] 40 μg/ml): −2.6 fold
fold change in gene expression compared to an untreated control (PA2146; [Ajoene] 80 μg/ml): −7.3 fold
fold change in gene expression compared to an untreated control (PA1871 lasA; [Ajoene] 10 μg/ml): −2.6 fold
fold change in gene expression compared to an untreated control (PA1871 lasA; [Ajoene] 20 μg/ml): −2.2 fold
fold change in gene expression compared to an untreated control (PA1871 lasA; [Ajoene] 40 μg/ml): −3.0 fold
fold change in gene expression compared to an untreated control (PA1871 lasA; [Ajoene] 80 μg/ml): −8.7 fold
down regulation of lasB (DNA microarray) (lasB): not more than 5 fold
fold change in gene expression compared to an untreated control (PA3478 rhlB; [Ajoene] 10 μg/ml): −2.6 fold
fold change in gene expression compared to an untreated control (PA3478 rhlB; [Ajoene] 20 μg/ml): −2.0 fold
fold change in gene expression compared to an untreated control (PA3478 rhlB; [Ajoene] 40 μg/ml): −3.3 fold
fold change in gene expression compared to an untreated control (PA3478 rhlB; [Ajoene] 80 μg/ml): −8.7 fold
fold change in gene expression compared to an untreated control (PA4175 prpL; [Ajoene] 10 μg/ml): −3.7 fold
fold change in gene expression compared to an untreated control (PA4175 prpL; [Ajoene] 20 μg/ml): −3.3 fold
fold change in gene expression compared to an untreated control (PA4175 prpL; [Ajoene] 40 μg/ml): −5.3 fold
fold change in gene expression compared to an untreated control (PA4175 prpL; [Ajoene] 80 μg/ml): −6.8 fold
fold change in gene expression compared to an untreated control (PA2300 chic; [Ajoene] 10 μg/ml): −2.5 fold
fold change in gene expression compared to an untreated control (PA2300 chic; [Ajoene] 20 μg/ml): −2.1 fold
fold change in gene expression compared to an untreated control (PA2300 chic; [Ajoene] 40 μg/ml): −5.1 fold
fold change in gene expression compared to an untreated control (PA2300 chic; [Ajoene] 80 μg/ml): −24.6 fold
fold change in gene expression compared to an untreated control (PA3479 rhlA; [Ajoene] 10 μg/ml): −2.2 fold
fold change in gene expression compared to an untreated control (PA3479 rhlA; [Ajoene] 20 μg/ml): −1.5 fold
fold change in gene expression compared to an untreated control (PA3479 rhlA; [Ajoene] 40 μg/ml): −2.6 fold
fold change in gene expression compared to an untreated control (PA3479 rhlA; [Ajoene] 80 μg/ml): −8.8 fold
fold change in gene expression compared to an untreated control (PA2570 pa1L; [Ajoene] 10 μg/ml): −1.8 fold
fold change in gene expression compared to an untreated control (PA2570 pa1L; [Ajoene] 20 μg/ml): −2.0 fold
fold change in gene expression compared to an untreated control (PA2570 pa1L; [Ajoene] 40 μg/ml): −3.3 fold
fold change in gene expression compared to an untreated control (PA2570 pa1L; [Ajoene] 80 μg/ml): −6.3 fold
fold change in gene expression compared to an untreated control (PA4142; [Ajoene] 10 μg/ml): −2.0 fold
fold change in gene expression compared to an untreated control (PA4142; [Ajoene] 20 μg/ml): −2.2 fold
fold change in gene expression compared to an untreated control (PA4142; [Ajoene] 40 μg/ml): −2.7 fold
fold change in gene expression compared to an untreated control (PA4142; [Ajoene] 80 μg/ml): −5.1 fold
fold change in gene expression compared to an untreated control (PA4141; [Ajoene] 10 μg/ml): −1.0 fold
fold change in gene expression compared to an untreated control (PA4141; [Ajoene] 20 μg/ml): −1.1 fold
fold change in gene expression compared to an untreated control (PA4141; [Ajoene] 40 μg/ml): −1.3 fold
fold change in gene expression compared to an untreated control (PA4141; [Ajoene] 80 μg/ml): −5.4 fold
fold change in gene expression compared to an untreated control (PA0852 cbpD; [Ajoene] 10 μg/ml): −2.8 fold
fold change in gene expression compared to an untreated control (PA0852 cbpD; [Ajoene] 20 μg/ml): −2.5 fold
fold change in gene expression compared to an untreated control (PA0852 cbpD; [Ajoene] 40 μg/ml): −3.9 fold
fold change in gene expression compared to an untreated control (PA0852 cbpD; [Ajoene] 80 μg/ml): −6.9 fold
biological activity after further purification [1]: lost all or parts of its biological activity

— patent US10603289B2, “Process for the manufacture of ajoene derivatives” (DANMARKS TEKNISKE UNIVERSITET, priority 2010, dated 2020)
